Experiment: HNO production determined via N2O quantification (GC headspace analysis)
Type: physicochemical
Conditions: PBS, 37° C., 90 minutes incubation
Description: Nitrous oxide (N2O) is produced via the dimerization and dehydration of HNO, and is the most common marker for nitroxyl production (Fukuto et al., Chem. Res. Toxicol. 18:790-801 (2005)). […] Using either nitrous oxide gas or Angeli's salt (AS) as a standard, the relative amounts of N2O released from compounds of the disclosure was examined via gas chromatography (GC) headspace analysis.
A procedure for determining the relative amounts of N2O released from compounds of the disclosure is as follows. GC was performed on an Agilent gas chromatograph equipped with a split injector (10:1 splitting), microelectron capture detector, and a HP-MOLSIV 30 m×0.32 mm×25 μm molecular sieve capillary column. Helium was used as the carrier (4 mL/min) gas and nitrogen was used as the make-up (20 mL/min) gas. The injector oven and the detector oven were kept at 200° C. and 325° C., respectively. All nitrous oxide analyses were performed with the column oven held at a constant temperature of 200° C.
All gas injections were made using an automated headspace analyzer. Vial pressurization was 15 psi. The analyzer's sample oven, sampling valve, and transfer line were kept at 40° C., 45° C., and 50° C., respectively. The oven stabilization, vial pressurization, loop fill, loop equilibration, and sample injection times were 1.00 min., 0.20 min., 0.20 min., 0.05 min., and 1.00 min., respectively.
All determinations used a batch of nominal 20 mL headspace vials with volumes pre-measured for sample uniformity (actual vial volume varied by <2.0% relative standard deviation (n=6)). The average vial volume for the batch was determined from six randomly-selected vials by calculating the weight difference between the capped and sealed empty (i.e., air-filled) vial and the capped and sealed deionized water-filled vial using the known density of deionized water, then averaging. Blanks were prepared by sealing and capping two vials then purging each for 20 seconds with a gentle argon stream. Nitroxyl standards were prepared by sealing and capping four vials then purging each for 1 minute with a gentle stream, from a gas cylinder, of a 3000 ppm […].
CXL-1020 (N-hydroxy-2-methanesulfonylbenzene-1-sulfonamide) “standards” were prepared by, in duplicate, accurately weighing 10±0.5 mg of CXL-1020 and adding it to each 4 mL vial. Using an auto pipette, 1 mL of argon-purged anhydrous DMF (Sigma-Aldrich) was added to each 4 mL vial to form a CXL-1020 stock solution for each sample and the vials were capped and shaken and/or sonicated to insure complete dissolution upon visual observation. Using an auto pipette, 20 mL vials were charged with 5 mL of PBS (purged for at least 30 min. with argon prior to use), purged with argon for at least 20 sec., and sealed with a rubber septum. Using a 50 μL syringe, 50 μL of the CXL-1020 stock solution was injected into each 20 mL vial containing the PBS.
Samples were prepared as follows. In duplicate, 18±1 mg of each sample was accurately weighed into each 4 mL vial. Using an auto pipette, 1 mL of argon-purged anhydrous DMF was added to each 4 mL vial to form a sample stock solution for each sample and the vials were capped and shaken and/or sonicated to insure complete sample dissolution upon visual observation. Using an auto pipette, 20 mL vials were charged with 5 mL of PBS (purged for at least 30 min. with argon prior to use), purged with argon for at least 20 sec., and sealed with a rubber septum. The vials were equilibrated for at least 10 min. at 37° C. in a dry block heater. Thereafter, using a 50 μL syringe, 50 μL of a sample stock solution was injected into each 20 mL vial containing the PBS. The vials were then held at 37° C. in the dry block heater for a time period such that the sum of the time spent in the dry block heater plus the time spent in the automated headspace analyzer oven before sample injection equaled the desired incubation time. […]

Row | SMILES | Relative N2O Yield (90 minutes incubation) [%]
1 | O=S(=O)(NO)c1ccc(-c2ccno2)s1 [Compound 38, N-Hydroxy-5-(1,2-oxazol-5-yl)thiophene-2-sulfonamide] | 25
2 | O=C(c1ccc(Cl)c(S(=O)(=O)NO)c1)N1CCC(=NO)CC1 [Compound 58, 2-Chloro-N-hydroxy-5-[4-(hydroxyimino)piperidine-1-carbonyl]benzene-1-sulfonamide] | 92
3 | CN1CCc2cc(Br)c(S(=O)(=O)NO)cc21 [Compound 67, 5-Bromo-N-hydroxy-1-methyl-2,3-dihydro-1H-indole-6-sulfonamide] | 59
4 | Cc1cc(S(=O)(=O)NO)c(C)s1 [Compound 41, N-Hydroxy-2,5-dimethylthiophene-3-sulfonamide] | 13
5 | COCCN(C)C(=O)c1ccc(Cl)c(S(=O)(=O)NO)c1 [Compound 59, 4-Chloro-3-(hydroxysulfamoyl)-N-(2-methoxyethyl)-N-methylbenzamide] | 82
6 | O=S(=O)(NO)c1ccc(O)cc1Cl [Compound 62, 2-Chloro-N,4-dihydroxybenzene-1-sulfonamide] | 28
7 | O=S(=O)(NO)c1c(Cl)ccc2nonc12 [Compound 50, 5-Chloro-N-hydroxy-2,1,3-benzoxadiazole-4-sulfonamide] | 31
8 | CN(C)C(=O)c1cc(S(=O)(=O)NO)c(Cl)cc1O [Compound 64, 4-Chloro-2-hydroxy-5-(hydroxysulfamoyl)-N,N-dimethylbenzamide] | 36
9 | O=S(=O)(NO)c1cc(C(F)(F)F)cc(C(F)(F)F)c1 [Compound 54, N-Hydroxy-3,5-bis(trifluoromethyl)benzene-1-sulfonamide] | 2
10 | Cc1cc(C)c(C)c(S(=O)(=O)NO)c1C [Compound 53, N-Hydroxy-2,3,5,6-tetramethylbenzene-1-sulfonamide] | 70
11 | O=S(=O)(NO)c1sccc1Cl [Compound 48, 3-Chloro-N-hydroxythiophene-2-sulfonamide] | 82
12 | COC(=O)c1ccc(S(=O)(=O)NO)n1C [Compound 75, Methyl 5-(hydroxysulfamoyl)-1-methyl-1H-pyrrole-2-carboxylate] | 4
13 | Cc1oc(C)c(S(=O)(=O)NO)c1C(=O)N1CCOCC1 [Compound 77, N-Hydroxy-2,5-dimethyl-4-(morpholine-4-carbonyl)furan-3-sulfonamide] | 14
14 | Cc1cc(S(=O)(=O)NO)c(C)o1 [Compound 70, N-Hydroxy-2,5-dimethylfuran-3-sulfonamide] | 6
15 | O=S(=O)(NO)c1ccc(-c2cnco2)s1 [Compound 40, N-Hydroxy-5-(1,3-oxazol-5-yl)thiophene-2-sulfonamide] | 50
16 | O=S(=O)(NO)c1cc(O)ccc1Cl [Compound 66, 2-Chloro-N,5-dihydroxybenzene-1-sulfonamide] | 80
17 | NS(=O)(=O)c1cc(S(=O)(=O)NO)cs1 [Compound 34, 4-N-Hydroxythiophene-2,4-disulfonamide] | 100
18 | O=S(=O)(NO)c1ccc(-c2cc(C(F)(F)F)on2)s1 [Compound 36, N-Hydroxy-5-[5-(trifluoromethyl)-1,2-oxazol-3-yl]thiophene-2-sulfonamide] | 51
19 | CC(C)S(=O)(=O)c1ccccc1S(=O)(=O)NO [Compound 73, N-Hydroxy-2-(propane-2-sulfonyl)benzene-1-sulfonamide] | 97

Row | SMILES | Relative N2O Yield (90 minutes incubation) [%]
20 | COC(=O)c1ccc(S(=O)(=O)NO)o1 [Compound 69, Methyl 5-(hydroxysulfamoyl)furan-2-carboxylate] | 100
21 | COC(=O)c1cc(C)c(S(=O)(=O)NO)s1 [Compound 42, Methyl 5-(hydroxysulfamoyl)-4-methylthiophene-2-carboxylate] | 91
22 | COCc1ccc(Cl)c(S(=O)(=O)NO)c1 [Compound 68, 2-Chloro-N-hydroxy-5-(methoxymethyl)benzene-1-sulfonamide] | 86
23 | CC(=O)N1CCOc2ccc(S(=O)(=O)NO)cc21 [Compound 74, 4-Acetyl-N-hydroxy-3,4-dihydro-2H-1,4-benzoxazine-6-sulfonamide] | 17
24 | COC(=O)c1ccc(Cl)c(S(=O)(=O)NO)c1 [Compound 55, Methyl 4-chloro-3-(hydroxysulfamoyl)benzoate] | 87
25 | O=S(=O)(NO)c1sc(Br)cc1Br [Compound 46, 3,5-Dibromo-N-hydroxythiophene-2-sulfonamide] | 95
26 | O=S(=O)(NO)c1ccc(-c2ccon2)s1 [Compound 44, N-Hydroxy-5-(1,2-oxazol-3-yl)thiophene-2-sulfonamide] | 81
27 | CN1CCOc2cc(S(=O)(=O)NO)ccc21 [Compound 61, N-Hydroxy-4-methyl-3,4-dihydro-2H-1,4-benzoxazine-7-sulfonamide] | 11
28 | O=S(=O)(NO)c1ccc(S(=O)(=O)c2ccccc2)s1 [Compound 43, 5-(Benzenesulfonyl)-N-hydroxythiophene-2-sulfonamide] | 82
29 | O=S(=O)(NO)c1coc2ccccc12 [Compound 6, N-Hydroxy-1-benzofuran-3-sulfonamide] | 85
30 | CCS(=O)(=O)c1ccccc1S(=O)(=O)NO [Compound 72, 2-(Ethanesulfonyl)-N-hydroxybenzene-1-sulfonamide] | 97
31 | O=S(=O)(NO)c1ncccc1Br [Compound 33, 3-Bromo-N-hydroxypyridine-2-sulfonamide] | 85.5
32 | O=S(=O)(NO)C1=C(Cl)NC2SC=CN12 (centres unmarked) [Compound 37, 6-Chloro-N-hydroxy-7H,7aH-imidazo[2,1-b][1,3]thiazole-5-sulfonamide] | 51
33 | O=C(O)c1cc(S(=O)(=O)NO)ccc1O [Compound 60, 2-Hydroxy-5-(hydroxysulfamoyl)benzoic acid] | 9
34 | CCOC(=O)c1coc(S(=O)(=O)NO)c1 [Compound 78, Ethyl 5-(hydroxysulfamoyl)furan-3-carboxylate] | 86
35 | CC(=O)Nc1ncc(S(=O)(=O)NO)s1 [Compound 76, N-[5-(Hydroxysulfamoyl)-1,3-thiazol-2-yl]acetamide] | 76
36 | O=S(=O)(NO)c1ccc(Br)s1 [Compound 45, 5-Bromo-N-hydroxythiophene-2-sulfonamide] | 76
37 | CN1CCc2cc(Cl)c(S(=O)(=O)NO)cc21 [Compound 65, 5-Chloro-N-hydroxy-1-methyl-2,3-dihydro-1H-indole-6-sulfonamide] | 71
38 | COc1ccc(S(=O)(=O)NO)cc1OC [Compound 52, N-Hydroxy-3,4-dimethoxybenzene-1-sulfonamide] | 11

Source: patent US10245249B2, “Pharmaceutical compositions comprising nitroxyl donors” (Cardioxyl Pharmaceuticals, Inc., priority 2013, dated 2019)
